Reference: EP0041047A2, “Dioxide compounds, process for their preparation and their use” (CIBA-GEIGY AG, priority 1980, dated 1981)

Experiments:
[1] = tested on: Escherichia coli 205 R^+ TEM; experiment: Protection of infected mice, subcutaneous application (ED50); type: in vivo, Maus
From the text: (§1) Aufgrund dieser ß-Lactamase-inhibierenden Wirkung erhöhen die Verbindungen der vorliegenden Erfindung die Wirkung von β-Lactamantibiotika in vitro und in vivo, wie durch Vergleich der antibiotischen Wirkungen von Verbindungen der vorliegenden Erfindung und von β-Lactamantibiotika allein und in Kombination miteinander festgestellt werden kann. Beispielsweise liegen in vitro die MIC-Werte von 1:1 Kombinationen der erfindungsgemässen Verbindung der Formel (I), worin R1 Hydroxy und R2 Carboxy bedeuten, oder des Natriumsalzes davon mit Ampicillin, Cefsulodin (CGP7174/E) oder Cefotiam (CGP14221/E) gegen eine Reihe der obengenannten ß-Lactamase produzierenden Mikroorganismen signifikant niedriger als die MIC-Werte der Einzelverbindungen. In vivo, beispielsweise bei subcutaner Applikation an Mäusen, die mit ß-Lactamase produzierenden Mikroorganismen infiziert wurden, z.B. mit Escherichia coli 205 R^+ TEM oder Morganella morganii 2359, wurde eine signifikante Erniedrigung der ED50-Werte gegenüber denjenigen der Einzelkomponenten festgestellt. Einige Werte sind in der folgenden Tabelle zusammengestellt: […]

[2] = tested on: Morganella morganii 2359; experiment: as above; type: in vivo; details: infecting microorganism Morganella morg. 2359
From the text: as §1

Row | Compound | ED50 ([1]; Escherichia coli, sc, read-out: s.c. ED50 (mg/kg, Maus)) | ED50 ([2]; Morganella morganii, sc, Maus) | s.c. ED50 (mg/kg, Maus) ([1]; Maus, s.c., infecting microorganism Esch.coli: 205 RT) | s.c. ED50 (mg/kg, Maus) [2]
1 | CN(C)CCn1nnnc1SCC1=C(C(=O)O)N2C(=O)[C@@H](NC(=O)Cc3csc(N)n3)[C@H]2SC1 [B, Cefotiam] | 70 mg/kg | 75 mg/kg |  | 
2 | (3R, 5R, 6R)-2,2-Dimethyl-6-hydroxymethylpenam-3-carbonsäure-1,1-dioxid-natriumsalz |  |  | 100 mg/kg | 100 mg/kg
